Measurements as given in patent publication US10842794B2, “Use of Sigma-1 receptor agonist compounds” (MTA TÁMOGATOTT KUTATÓCSOPORTOK IRODÁJA, priority 2014, dated 2020).

Columns and labels:
NRK49F cells = test: Cell viability MTT assay in myofibroblasts; assay type: cell-based, rat; settings: 24-hours treatment, commonly used doses 1-10 μM
[1] = system: NRK49F rat kidney interstitial fibroblast cell lines; test: PDGFB-induced myofibroblast proliferation (MTT); assay type: cell-based; settings: for PDGF-induced myofibroblast proliferation: 10 ng/mL PDGFB, 24 hours, different concentrations of agonist
NRK49F myofibroblasts = settings: all applied concentrations, even the smallest 1 μM
Procedure: In 6-well plates of NRK49F myofibroblasts (6×10^6 cells/well) TGF-β (1 nM) induced production of fibrillar components of the extracellular matrix was measured by Sirius Red staining. To investigate the effect of S1R agonist compounds a group of cells was treated for 48 hours with the various S1R agonists. Solvent treated cells served as controls. (Bars represent mean±SEM)
To investigate the deposition of fibrillar collagen Sirius Red staining was performed. 48 hours after the treatment with TGF-β and said compounds the NRK-49F cells were incubated for 10 minutes with Kahle fixative solution. 0.1% Sirius Red (Direct Red 80, Sigma-Aldrich) in 1.2% picric acid was added for each well and plates were incubated for 30 minutes at RT. The unconnected dye molecules were washed with distilled water. The bound Sirius Red dye was eluated with 0.1 M NaOH solution, absorbance was recorded at 540 nm in a Hidex Chameleon Microplate Reader (Triathler, Plate Chameleion, 300SL Lablogic Systems, Inc., Brandon, Fla., USA) used MikroWin program. Vehicle treated cells served as controls.

[2] = system: Japanese patients with IPF; settings: 1,800 mg/day, 107 Japanese patients with IPF; cited from earlier work
[3] = system: Streptozotocin induced type 1 diabetic rats; test: Diabetic rat kidney: Masson's trichrome staining, tubulointerstitial fibrosis; assay type: in vivo; settings: rats treated with 20 mg fluvoxamine + NE-100 1 mg/bwkg/day
[4] = system: rat model of bleomycin-induced lung fibrosis; test: Rat model of bleomycin induced pulmonary fibrosis: Masson trichrome staining of lung; assay type: in vivo; settings: fluvoxamine 20 mg/bwkg/day + NE-100 1 mg/bwkg/day for three weeks
Procedure: Masson trichrome staining of tissue sections was performed Bars represent Mean±SEM, n=6/group). Specifically:
(§1) For the induction of pulmonary fibrosis male Wistar rats were anesthetized. Bleomycin (5 mg/bwkg in a 300 μl solution of isotonic saline) or 300 μl isotonic saline was administered into the trachea using a 30G needle.
(§2) Animals were randomly divided into 4 groups of 6 rats each as follows (i)—control group was sham operated, received isotonic saline per os daily for 3 weeks, (ii) vehicle treated group: received isotonic saline per os daily for 3 weeks after the induction of lung fibrosis, (iii) fluvoxamine treated group: received fluvoxamine (20 mg/bwkg/day per os for 3 weeks after the induction of lung fibrosis), (iv) fluvoxamine+NE100 treated group: received fluvoxamine (20 mg/bwkg/day; per os) and 1 mg/bwkg/day NE100 (i.p. for 3 weeks after the induction of lung fibrosis. […]
The stained sections were viewed and photographed with Pannoramic 250 Flash and Pannoramic Viewer 1.15.2 (3D HISTECH Ltd. Budapest, Hungary) Adobe Photoshop 13.0 and Scion Image for Windows software were used for the analysis. […] Finally these ratios were statistically analyzed in all of the treatment groups.

[5] = system: Streptozotocin induced type 1 diabetic rats; test: Diabetic rat kidney: fibronectin staining; assay type: in vivo; settings: fluvoxamine 20 mg/bwkg/day + NE-100 1 mg/bwkg/day
[6] = system: Streptozotocin induced type 1 diabetic rats; test: Diabetic rat kidney: PAS staining, mesangial matrix expansion; assay type: in vivo; settings: fluvoxamine 20 or 2 mg/bwkg/day + NE-100 1 mg/bwkg/day
[7] = system: mice with unilateral ureter obstruction (UUO); test: Mice model of unilateral ureteral obstruction (UUO): Masson's trichrome, tubulointerstitial fibrosis; assay type: in vivo; settings: fluvoxamine 20 mg/bwkg/day + NE-100 1 mg/bwkg/day for one week
[8] = system: rat model of bleomycin-induced lung fibrosis; test: Rat model of bleomycin induced pulmonary fibrosis: αSMA protein in lung, western blot; assay type: in vivo; settings: fluvoxamine 20 mg/bwkg/day + NE-100 1 mg/bwkg/day for three weeks
Procedure: (Bars represent Mean±SEM, n=6/group).
as §1, §2
Tissue samples were lysed in buffer containing leupeptin, aprotinin, Triton X-100, Tris-HCl, Ethylene glycol-bis (2-aminoethylether),N,N,N′,N′-tetraacetic-acid, NaF, Phenylmethylsulphonylfluoride and Na-orthovanadate (each substance were purchased from Sigma-Aldrich Co., St. Louis, Mo., USA) and centrifuged to pellet nuclei and large cellular fragments. Protein concentration of the supernatants was determined by Bradford assay (Bio-Rad Laboratories, Hercules, Calif., USA). […] Bands were analyzed with Quantity One software version 4.6.9. […]

[9] = system: Streptozotocin induced type 1 diabetic rats; test: Diabetic rat kidney: αSMA protein level, western blot; assay type: in vivo; settings: diabetic rats, fluvoxamine + NE-100 1 mg/bwkg/day
S2R = S2R (Homo sapiens, UniProt Q5BJF2); settings: read-out: Ki for σ2 receptors; cited from earlier work
PCP receptors = settings: cited from earlier work
[10] = system: post-AMI left ventricular remodeling / infarct expansion; settings: cited from earlier work

Chain of S2R (Q5BJF2 whole entry, species assumed): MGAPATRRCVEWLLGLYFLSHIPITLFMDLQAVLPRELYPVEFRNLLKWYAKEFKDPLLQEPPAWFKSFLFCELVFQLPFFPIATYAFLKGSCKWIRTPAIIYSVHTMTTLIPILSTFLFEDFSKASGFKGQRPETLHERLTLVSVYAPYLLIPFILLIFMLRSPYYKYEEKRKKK

Compound: COc1ccc(CCN2CCN(CCCc3ccccc3)CC2)cc1OC [SA-4503, 1-[2-(3,4-Dimethoxyphenyl)ethyl]-4-(3-phenylpropyl)piperazine]
- cytotoxicity / cell viability in myofibroblasts (NRK49F cells): not cytotoxic
- PDGF-induced myofibroblast proliferation [1]: significantly decreased PDGF-induced myofibroblast proliferation
- TGFβ-induced ECM production (Sirius Red) (NRK49F myofibroblasts): significantly inhibited TGFβ-induced ECM production

Compound: Cc1ccc(=O)n(-c2ccccc2)c1 [pirfenidone, 5-Methyl-1-phenylpyridin-2-one]
- primary end point, pirfenidone versus placebo [2]: not significantly different between the two groups

Compound: CCCN(CCC)CCc1ccc(OC)c(OCCc2ccccc2)c1.Cl [NE-100, 4-Methoxy-3-(2-phenylethoxy)-N,N-dipropylbenzeneethanamine hydrochloride]
- cytotoxicity / cell viability in myofibroblasts (NRK49F cells): not cytotoxic
- effect of NE-100 co-administration on protective effect of fluvoxamine (tubulointerstitial fibrosis) [3]: inhibited the protective effect of fluvoxamine
- effect of NE-100 on fluvoxamine's effect on lung fibrosis [4]: suspended the effect of fluvoxamine
- effect of NE-100 co-incubation on anti-proliferative effect of fluvoxamine ([1]; NE-100 3 μM with fluvoxamine 10 μM, PDGF-induced): suspended the effect of fluvoxamine
- effect of NE-100 on fluvoxamine's effect on fibronectin accumulation [5]: suspended this beneficial effect
- effect of NE-100 co-administration on renoprotection of fluvoxamine (mesangial matrix expansion) [6]: prohibited the renoprotection of fluvoxamine
- effect of NE-100 on fluvoxamine's effect on tubulointerstitial fibrosis after UUO [7]: suspended the beneficial effect of fluvoxamine
- effect of NE-100 on fluvoxamine's effect on lung αSMA [8]: suspended the beneficial effect of fluvoxamine
- effect of NE-100 co-administration on fluvoxamine's effect on αSMA protein level [9]: suspended

Compound: O=C(OCCN1CCOCC1)C1(c2ccccc2)CCCCC1 [PRE-084, 2-morpholin-4-ylethyl 1-phenylcyclohexane-1-carboxylate]
- cytotoxicity / cell viability in myofibroblasts (NRK49F cells): not cytotoxic
- Ki (S2R): 13.1 µM
- PDGF-induced myofibroblast proliferation [1]: significantly decreased PDGF-induced myofibroblast proliferation
- IC50 (PCP receptors): > 100 µM
- TGFβ-induced ECM production (Sirius Red) (NRK49F myofibroblasts): significantly inhibited TGFβ-induced ECM production

Compound: COc1ccc(/C=C/C(=O)Nc2ccccc2C(=O)O)cc1OC [tranilast, 2-{[(2E)-3-(3,4-dimethoxyphenyl)prop-2-enoyl]amino}benzoic acid]
- left ventricular remodeling ([10]; commencement of treatment delayed to 7 days post-AMI): impeded left ventricular remodeling
- infarct expansion ([10]; intervention from 24h post-AMI): exacerbated infarct expansion
